Source: patent US10212956B2, “Compositions and methods of treating edible matter and substrates therefor” (PIMI AGRO CLEANTECH LTD., priority 2010, dated 2019)

Tests used:
[1] = system: mandarin oranges; experiment: Citrus decay during storage at 2° C.; type: in vivo; conditions: Mandarin Orange
Description: Approximately 1000 mandarin oranges were treated shortly after harvest with compositions comprising performic acid, water, or an Imazalil composition, and then stored at 2° C. After 22 days, the number of rotten fruits, and the percent decay were assessed. A second trial was conducted with ten tons of mandarin oranges treated with a performic acid composition or Imazalil and stored and then stored at 2° C. The study was repeated with Red Grapefruit. The compositions comprising performic acid and the manner of applying the compositions varied throughout the course of the study within the parameters summarized in Table 6.
The compositions were applied to the citrus at room temperature with a fine spray of the performic acid containing composition and then treated either a) with a drain wash of water (either cold or heated to 55° C.) with a 1:9 dilution in tap water of the composition without formic acid, orb) with a drain wash of water (either cold or heated to 55° C.), followed by a fine spray at room temperature with a formulation identical to the performic acid formulation but without formic acid. Thus, the methods of applying in this study were: • a. Application of the performic acid containing composition at room temperature with fine spray, then treatment with a drain wash of cold water, and then a fine spray at room temperature with a formula without formic acid (i.e. without the performic acid source) • b. Application of the performic acid containing composition at room temperature with fine spray, then treatment with a drain wash of heated water (to about 55° C.), and then a fine spray at room temperature with a formula without formic acid • c. Application of the performic acid containing composition at room temperature with fine spray and then treatment with a drain wash of cold water that contained the formula at a diluted state at a ratio of 1:9 but without formic acid • d. Application of the performic acid containing composition at room temperature with fine spray and then treatment with a drain wash of heated water (to about 55° C.) that contained the formula at a diluted state at a ratio of 1:9 but without formic acid
All treatments were conducted at a total rate of 5-20 liter of formula per ton of different Citrus varieties.

[2] = system: Aspergillus niger (ATCC 16404); experiment: BS EN 1650:1998 quantitative suspension test, fungicidal activity; type: cell-based; conditions: 300 ppm; same test conditions (1 minute, 20° C., dirty conditions)
Description: (§1) This is a quantitative suspension test to evaluate the activity of chemical disinfectants and antiseptics used in food, industrial, domestic and institutional areas against fungi, yeasts and molds. The same composition tested in Example 22 was tested in this case as well.
(§2) As is known in the art, EN 1650 specifies a test method and the minimum requirements for anti-fungal, anti-yeast and anti-mold activity of chemical disinfectant and antiseptic products that form a homogeneous, physically stable preparation in hard water and that are used in food, industrial, domestic and institutional areas, excluding areas and situations where disinfection is medically indicated and excluding products used on living tissues except those for hand hygiene in the above-considered areas. […]
(§3) A test suspension of yeast cells and/or mold spores in a solution of interfering substance (bovine albumin, 3 g/l) was added to a prepared sample of the product under test diluted in hard water. […] (If a suitable neutralizer could be found, membrane filtration was used.) The number of surviving fungi, yeast cells or mold spores in each sample was determined and the reduction in viable counts was calculated. […]

[3] = system: Penecillium w.t. (wild type); experiment: as above; type: cell-based; conditions: 300 ppm; same test conditions (1 minute, 20° C., dirty conditions)
Description: as §1, §2, §3

Row | Compound | % Decay ([1]; 22 days after treatment) [%] | No. Rotten Fruits ([1]; 22 days after treatment) | % Decay ([1]; 46 days after treatment) [%] | No. Rotten Fruits ([1]; 46 days after treatment) | compliance with EN 1650 [2] | compliance with EN 1650 [3]
1 | C=CCOC(Cn1ccnc1)c1ccc(Cl)cc1Cl (stereo not drawn) [Imazalil] | 6.8 | 59 | 1.75 | 125 |  | 
2 | CC(=O)OO [peracetic acid] |  |  |  |  | did not meet the standard | did not meet the standard
